The results in this text go back to patent US20180179198A1, “TRICYCLIC MODULATORS OF TNF SIGNALING” (AbbVie Inc., priority 2015, published 2018).

Structures are written as SMILES. Read-outs that look alike come from different tables or passages of the source. Where only a bound is given, the exact number is not on record here.

The target in this experiment is TNFα trimer (Homo sapiens, UniProt P01375). The experiment is described as follows: TNFα FP Competitive Binding Assay. The method, boiled down:
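Fluorescence polarization displacement: 20 nM TNFα trimer (60 nM protein) with 1 nM fluorescein-labelled bis-isoquinoline probe in HEPES/NaCl/EDTA/Triton X-100 buffer. 12-point 1:3 compound series, top final 338 μM (3.4% DMSO) or 100 μM (2.0% DMSO); 18-24 h at 37 °C, then 1 h rt before background-subtracted mP read; variable-slope curve fit.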

Where [1] appears, read: fluorescence polarization competition, 20 nM TNFα trimer, 1 nM OregonGreen488 probe, read-out: TNF IC50 (TNFα FP binding assay IC50).
Where [2] appears, read: TNFα FP competitive binding assay, class symbols A/B/C, read-out: TNF IC50.

Chain of TNFα trimer (P01375 77-233 limits assumed): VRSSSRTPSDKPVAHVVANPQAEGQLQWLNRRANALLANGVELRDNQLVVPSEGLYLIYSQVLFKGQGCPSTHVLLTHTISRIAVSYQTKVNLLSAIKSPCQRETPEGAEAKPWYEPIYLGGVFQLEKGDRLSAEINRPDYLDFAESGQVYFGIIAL

Consider `C1=C(c2ccc3nc4n(c3n2)[C@@H](c2ccccc2)CC4)CCN(c2ccncn2)C1` [Example 76, (R)-8-Phenyl-2-(1-(pyrimidin-4-yl)-1,2,3,6-tetrahydropyridin-4-yl)-7,8-dihydro-6H-pyrrolo[2′,1′:2,3]imidazo[4,5-b]pyridine], for which the IC50 (commonly the concentration that inhibits the measured activity by half) under setting [1] lay in the range of 1000 to 10000 nM.

For `Fc1cccc(C2COCc3nc4ccc(-c5cnc(N6CCOCC6)nc5)cc4n32)c1` (centres unmarked) [U.2, 4-(3-Fluorophenyl)-7-(2-morpholinopyrimidin-5-yl)-3,4-dihydro-1H-benzo[4,5]imidazo[2,1-c][1,4]oxazine], under setting [2], the IC50 lay within 1000 to 10000 nM.

For `OC1CCN(c2ncc(-c3ccc4nc5n(c4c3)C(c3cccc(F)c3)COC5)cn2)CC1(F)F` (centres unmarked) [X.1], the IC50 under setting [2] is less than 1000 nM.

Regarding `OC1(c2ccccc2)CCCc2nc3ccc(-c4cnc(N5CCOCC5)nc4)cn3c21` (centres unmarked) [I.2], under setting [1], the IC50 was 1000 to 10000 nM.

For `OCC1CN(c2ncc(-c3ccc4nc5n(c4c3)[C@@H](c3ccccc3)COC5)cn2)CCO1` (some centres unmarked) [G.35], under setting [1], the IC50 is less than 1000 nM.

`CN(C)c1ncc(-c2ccc3nc4n(c3c2)C(c2ccccc2)COC4)cn1` (centres unmarked) [T.14]: the IC50 under setting [2] fell in the range of 1000 to 10000 nM.

On to `O=C1CN(c2ncc(-c3ccc4nc5n(c4n3)C(c3ccccc3)CC5)cn2)CCN1` (centres unmarked) [L.2], for which the IC50 under setting [1] was less than 1000 nM.

Consider `c1ccc(C2CCOc3nc4ccc(-c5cnc(N6CCOCC6)nc5)cn4c32)cc1` (centres unmarked) [D.4], for which, under setting [1], the IC50 fell in the range of 1000 to 10000 nM.

`Cc1cccc(C2(O)CCCCc3nc4ccc(-c5cnc(N6CCOCC6)nc5)cn4c32)c1` (centres unmarked) [J.3]: the IC50 under setting [1] is 1000 to 10000 nM.

With `Cc1cc(-c2ccc3nc4n(c3c2)C(c2ccccc2)COC4)cnc1N1CCN(C)CC1` (centres unmarked) [T.34], the IC50 under setting [2] fell in the range of 1000 to 10000 nM.

On to `c1ccc(C2COCc3nc4ccc(-c5cnc6nonc6c5)cc4n32)cc1` (centres unmarked) [T.3], for which the IC50 under setting [2] was in the range of 1000 to 10000 nM.

As for `c1ccc([C@H]2CCc3nc4ccc(-c5ccnc(OC6CCOCC6)c5)cc4n32)cc1` [AA.4], the 50% inhibitory concentration (IC50) under setting [2] is less than 1000 nM.

As for `COc1ccccc1C1CCCc2nc3ccc(-c4cnc(N5CCN6C(=O)NCC6C5)nc4)cn3c21` (centres unmarked) [AJ.6], the IC50 under setting [2] was less than 1000 nM.

`CNS(=O)(=O)c1ccc(-c2ccc3nc4n(c3c2)C(c2ccccc2)CC4)cc1` (centres unmarked) [A.1]: the IC50 under setting [1] was less than 1000 nM.

In the case of `c1ccc(C2CCc3nc4ccc(-c5cnc(N6CCOCC6)nc5)nc4n32)cc1` (centres unmarked) [Example 6, 4-(5-(8-Phenyl-7,8-dihydro-6H-pyrrolo[2′,1′:2,3]imidazo[4,5-b]pyridin-2-yl)pyrimidin-2-yl)morpholine], the IC50 under setting [1] was less than 1000 nM.

On to `C[C@@H]1CN(c2ncc(-c3ccc4nc5n(c4n3)C3(COC5)COc4ccccc43)cn2)CCN1C(=O)COC(C)(C)C` (stereo partly drawn) [BG.6, 1-((2R)-4-(5-(2H,6′H,8′H-Spiro[benzofuran-3,9′-pyrido[3′,2′:4,5]imidazo[2,1-c][1,4]oxazin]-2′-yl)pyrimidin-2-yl)-2-methylpiperazin-1-yl)-2-(tert-butoxy)ethan-1-one], for which, under setting [2], the IC50 was less than 1000 nM.

Turning to `OC1CCN(c2ncc(-c3ccc4nc5n(c4n3)C(c3ccccc3)COC5)cn2)CC1(F)F` (centres unmarked) [AZ.1], under setting [2], the IC50 is less than 1000 nM.

Take `O=C1NC[C@H]2CN(c3ncc(-c4ccc5nc6n(c5c4)[C@@H](c4ccccc4)COC6)cn3)CCN12` [Example 27, (S)-7-(5-((S)-4-Phenyl-3,4-dihydro-1H-benzo[4,5]imidazo[2,1-c][1,4]oxazin-7-yl)pyrimidin-2-yl)hexahydroimidazo[1,5-a]pyrazin-3(2)-one]: under setting [1], the IC50 was less than 1000 nM.

As to `OCCC1(O)CCN(c2ncc(-c3ccc4nc5n(c4c3)[C@@H](c3ccccc3)COC5)cn2)CC1` [G.20], under setting [1], the IC50 was less than 1000 nM.

As to `CN1CCC(N2CCN(c3ncc(-c4ccc5nc6n(c5c4)[C@@H](c4ccccc4)COC6)cn3)CC2)CC1` [G.13], the half-maximal inhibitory concentration (IC50) under setting [1] lay within 1000 to 10000 nM.

`COc1ccccc1C1CCCc2nc3ccc(-c4cnc(C(C)(C)O)nc4)cn3c21` (centres unmarked) [Example 16, 2-(5-(9-(2-Methoxyphenyl)-6,7,8,9-tetrahydrobenzo[4,5]imidazo[1,2-a]pyridin-2-yl)pyrimidin-2-yl)propan-2-ol]: under setting [1], the IC50 was less than 1000 nM.

Turning to `COc1ccccc1C1CCCc2nc3ccc(-c4cnc(N5CCCC(O)CC5)nc4)cn3c21` (centres unmarked) [AJ.2], the IC50 under setting [2] is less than 1000 nM.

On to `OC1CCCN(c2ncc(-c3ccc4nc5n(c4n3)C3(COC5)COc4ccccc43)cn2)C1` (centres unmarked) [AU.4], for which the IC50 under setting [2] is less than 1000 nM.

As for `O[C@H]1CC[C@H](Oc2cc(-c3ccc4nc5n(c4n3)[C@@]3(COC5)COc4ccccc43)ccn2)CC1` [Example 74, (1S,4r)-4-((4-((S)-6′,8′-Dihydro-2H-spiro[benzofuran-3,9′-pyrido[3′,2′:4,5]imidazo[2,1-c][1,4]oxazin]-2′-yl)pyridin-2-yl)oxy)cyclohexanol], the IC50 under setting [1] is less than 1000 nM.

With `Fc1cccc([C@H]2COCc3nc4ccc(-c5cnc(N6CCOCC6)nc5)cc4n32)c1` [Y.7], the IC50 under setting [2] is less than 1000 nM.

Turning to `O=C1CN(c2ncc(-c3ccc4nc5n(c4n3)C(c3ccccc3)CCC5)cn2)CCN1` (centres unmarked) [O.3], the IC50 under setting [1] is less than 1000 nM.

Regarding `CC(C)(O)COc1cc(-c2ccc3nc4n(c3n2)[C@@H](c2ccccc2)CC4)ccn1` [BC.2], under setting [2], the 50% inhibitory concentration (IC50) fell in the range of 1000 to 10000 nM.

Turning to `COc1ccccc1C1CCCc2nc3ccc(-c4cnc(N5CCOCC5)nc4)cn3c21` (centres unmarked) [Example 15, 4-(5-(9-(2-Methoxyphenyl)-6,7,8,9-tetrahydrobenzo[4,5]imidazo[1,2-a]pyridin-2-yl)pyrimidin-2-yl)morpholine], the IC50 under setting [1] was less than 1000 nM.

As for `OCCOc1cc(-c2ccc3nc4n(c3n2)[C@@H](c2ccccc2)CC4)ccn1` [AQ.7], the IC50 under setting [2] fell in the range of 1000 to 10000 nM.

`CC1(C)C=C(c2ccc3nc4n(c3n2)[C@@H](c2ccccc2)CC4)CN1` [Example 62]: under setting [1], the IC50 fell in the range of 10000 to 100000 nM.

Consider `CC(C)(O)c1ncc(-c2ccc3nc4n(c3n2)[C@@H](c2ccccc2)[C@@H]2C[C@H]4O2)cn1` [Example 70, 2-(5-((6R,8S,9S)-9-Phenyl-6,7,8,9-tetrahydro-6,8-epoxyimidazo[1,2-a:5,4-b′]dipyridin-2-yl)pyrimidin-2-yl)propan-2-ol], for which the IC50 under setting [1] is 10000 to 100000 nM.

Consider `Fc1cccc(C2COCc3nc4ccc(-c5cnc(N6CCCOCC6)nc5)cc4n32)c1` (centres unmarked) [X.3], for which the IC50 under setting [2] was less than 1000 nM.

`c1ccc(C2CCc3nc4ccc(-c5ccc(N6CCNCC6)nc5)cc4n32)cc1` (centres unmarked) [A.17]: the IC50 under setting [1] lay within 1000 to 10000 nM.

As to `c1ccc(C2C3CC(C3)c3nc4ccc(-c5cnc(N6CCOCC6)nc5)nc4n32)cc1` (centres unmarked) [BE.1], under setting [2], the IC50 is 1000 to 10000 nM.

With `CC1(O)CCN(c2ncc(-c3ccc4nc5n(c4c3)[C@@H](c3ccccc3)COC5)cn2)CC1` [G.22], the IC50 under setting [1] was less than 1000 nM.

Turning to `COc1ccccc1[C@H]1CCc2nc3ccc(-c4cnc(N5CCN(C(=O)CO)[C@H](C)C5)nc4)nc3n21` [AO.4], under setting [2], the IC50 was less than 1000 nM.

As to `O=C1NC[C@@H]2CN(c3ncc(-c4ccc5nc6n(c5c4)[C@@H](c4ccccc4)CC6)cn3)CCN12` [Example 24, (R)-7-(5-((R)-1-Phenyl-2,3-dihydro-1H-benzo[d]pyrrolo[1,2-a]imidazol-7-yl)pyrimidin-2-yl)hexahydroimidazo[1,5-a]pyrazin-3(2H)-one], the IC50 under setting [1] was less than 1000 nM.

For `C[C@@H]1CN(c2ncc(-c3ccc4nc5n(c4n3)[C@@H](c3ccccc3)CC5)cn2)CCN1C(=O)CO` [Example 43, 2-Hydroxy-1-((R)-2-methyl-4-(5-((R)-8-phenyl-7,8-dihydro-6H-pyrrolo[2′,1′:2,3]imidazo[4,5-b]pyridin-2-yl)pyrimidin-2-yl)piperazin-1-yl)ethanone], the IC50 under setting [1] was less than 1000 nM.

`C[C@@H]1CN(C(=O)CO)CCN1c1ncc(-c2ccc3nc4n(c3n2)C2(COC4)COc3ccccc32)cn1` (some centres unmarked) [BH.2]: under setting [2], the 50% inhibitory concentration (IC50) is less than 1000 nM.

For the molecule `C[C@H]1CN(c2ncc(-c3ccc4nc5n(c4n3)[C@]3(COC5)COc4ccccc43)cn2)CCN1C(=O)CO` [BM.2], the IC50 (Table BM, read-out: TNF IC50) is 1000 to 10000 nM.

Take `COc1ccccc1[C@@H]1CCCc2nc3ccc(-c4cnc(C(C)(C)O)nc4)cn3c21` [Y.5]: under setting [2], the IC50 lay in the range of 1000 to 10000 nM.

Regarding `CC(C)(O)c1ncc(-c2ccc3nc4n(c3c2)C(C2CCCCC2)CC4)cn1` (centres unmarked) [Example 17, 2-(5-(1-Cyclohexyl-2,3-dihydro-H-benzo[d]pyrrolo[1,2-a]imidazol-7-yl)pyrimidin-2-yl)propan-2-ol], the IC50 under setting [1] is less than 1000 nM.

`c1ccc(C2CCc3nc4ccc(-c5cccnc5)cc4n32)cc1` (centres unmarked) [A.22]: under setting [1], the IC50 was 1000 to 10000 nM.

Turning to `OC(CC1CC1)c1ncc(-c2ccc3nc4n(c3n2)[C@@H](c2ccccc2)CC4)cn1` (some centres unmarked) [AL.2], the IC50 under setting [2] was in the range of 1000 to 10000 nM.

Consider `CS(=O)(=O)c1cncc(-c2ccc3nc4n(c3c2)C(c2ccccc2)CC4)c1` (centres unmarked) [A.31], for which the IC50 under setting [1] was 10000 to 100000 nM.

With `OCCCN1CCN(c2ncc(-c3ccc4nc5n(c4c3)[C@@H](c3ccccc3)COC5)cn2)CC1` [G.5], the IC50 under setting [1] is 1000 to 10000 nM.

On to `CC(C)(O)c1ncc(-c2ccc3nc4n(c3c2)C(C2CCOCC2)CC4)cn1` (centres unmarked) [Example 38, 2-(5-(1-(Tetrahydro-2H-pyran-4-yl)-2,3-dihydro-1H-benzo[d]pyrrolo[1,2-a]imidazol-7-yl)pyrimidin-2-yl)propan-2-ol], for which the IC50 under setting [1] was 10000 to 100000 nM.

With `COc1ccccc1C1CCCc2nc3ccc(-c4ccc(OCC(=O)O)nc4)cn3c21` (centres unmarked) [R.1], under setting [1], the IC50 is less than 1000 nM.

Take `O[C@H]1CC[C@@H](Oc2cc(-c3ccc4nc5n(c4n3)C3(COC5)COc4ccccc43)ccn2)CC1` (some centres unmarked) [AX.2]: under setting [2], the IC50 fell in the range of 1000 to 10000 nM.

Consider `OC1CCN(c2ncc(-c3ccc4nc5n(c4n3)C3(CCOc4ccccc43)COC5)cn2)C1` (centres unmarked) [BB.5], for which the IC50 under setting [2] is less than 1000 nM.

As to `COc1ccccc1C1CCCCc2nc3ccc(-c4cnc(C(C)(C)O)nc4)cn3c21` (centres unmarked) [S.4], the IC50 under setting [2] was less than 1000 nM.

For the molecule `c1ccc([C@H]2CCc3nc4ccc(-c5ccnc(OCC6CCOCC6)c5)nc4n32)cc1` [Example 61, (R)-8-Phenyl-2-(2-((tetrahydro-2H-pyran-4-yl)methoxy)pyridin-4-yl)-7,8-dihydro-6H-pyrrolo[2′,1′:2,3]imidazo[4,5-b]pyridine], the IC50 under setting [1] was in the range of 1000 to 10000 nM.

As for `O=C1NC[C@@H]2CN(c3ncc(-c4ccc5nc6n(c5n4)C4(CCc5ccccc54)COC6)cn3)CCN12` (some centres unmarked) [AV.2], the half-inhibitory concentration (IC50) under setting [2] was less than 1000 nM.
